pIC50: −log10 of the molar value.
Legend:
CDK1/CycB = molecular target: T1, CDK1/CycB (Homo sapiens, UniProt P06493); test: CDK1/CycB kinase assay (Assay 1); type: biochemical; details: 0.5 μM ATP, histon IIIS, 10 min 22° C.; read-out: CDK1/CycB (Assay 1) Concentration for half-maximal inhibition of the enzyme activity, IC50
T1 construct: purchased ProQinase GmbH, Freiburg, Germany; host or cells: baculovirus-infected insect cells (Sf9)
Description: Recombinant CDK1 and CycB-GST fusion proteins, purified from baculovirus-infected insect cells (Sf9), were purchased from ProQinase GmbH, Freiburg, Germany. The histon HIS used as kinase substrate is commercially available from Sigma.
CDK1/CycB (200 ng/measuring point) was incubated for 10 min at 22° C. in the presence of various concentrations of test substances (0 μM, and within the range 0.01-100 μM) in assay buffer [50 mM Tris/HCl pH8.0, 10 mM MgCl2, 0.1 mM Na ortho-vanadate, 1.0 mM dithiothreitol, 0.5 μM adenosine triphosphate (ATP), 10 μg/measuring point histon IIIS, 0.2 μCi/measuring point ^33P-gamma ATP, 0.05% NP40, 1.25% dimethyl sulfoxide]. The reaction was stopped by adding EDTA solution (250 mM, pH 8.0, 15 μl/measuring point).
(§1) From each reaction mixture, 15 μl were applied to P30 filter strips (from Wallac), and unincorporated ^33P-ATP was removed by washing the filter strips three times, for 10 min each time, in 0.5% phosphoric acid. After drying the filter strips for 1 hour at 70° C., the filter strips were covered with scintillator strips (MeltiLex™ A, from Wallac) and stoved for 1 hour at 90° C. The amount of incorporated ^33P (substrate phosphorylation) was determined by scintillation measurement in a gamma-radiation measuring instrument (Wallac). The measured data were standardized to 0% inhibition (enzyme reaction without inhibitor) and 100% inhibition (all assay components except enzyme). The IC50 values were determined by means of a 4-parameter fit using the company's own software.

CDK2/CycE = molecular target: T2, CDK2/CycE (Homo sapiens, UniProt P24941); test: CDK2/CycE kinase assay (Assay 2); type: biochemical; details: 0.5 μM ATP, histon IIIS, 10 min 22° C.; read-out: CDK2/CycE (Assay 2) Concentration for half-maximal inhibition of the enzyme activity, IC50
T2 construct: purchased ProQinase GmbH, Freiburg, Germany; host or cells: baculovirus-infected insect cells (Sf9)
Description: Recombinant CDK2 and CycE-GST fusion proteins, purified from baculovirus-infected insect cells (Sf9), were purchased from ProQinase GmbH, Freiburg, Germany. Histon HIS, used as kinase substrate, was purchased from Sigma.
The reaction was stopped by adding EDTA solution (250 mM, pH 8.0, 15 μl/measuring point).
as §1, with “μl was” for “μl were”, “(Wallac). […]” for “(Wallac). The measured data were standardized to 0% inhibition (enzyme reaction without inhibitor) and 100% inhibition (all assay components except enzyme).”

NCI-ADR-Res = test: Proliferation assay NCI-ADR-Res; type: cell-based; details: Homo sapiens, 96 h, ovarial carcinoma, 4 days, crystal violet
Description: (§2) Cultivated human tumor cells (originally obtained from ATCC, HeLa-MaTu and HeLa-MaTu-ADR, originally obtained from Epo GmbH, Berlin, Germany) were plated at a density of 1000 to 5000 cells/measuring point, depending on the growth rate of the cell line, in a 96-well multititer plate in 200 μl of growth medium (DMEM/HAMS F12, 2 mM L-glutamine, 10% fetal calf serum). After 24 hours the cells of one plate (zero-point plate) were stained with crystal violet (see below), whereas the medium of the other plates was replaced with fresh culture medium (200 μl), to which the test substances had been added at various concentrations (0 μM, and in the range 0.01-30 μM; the final concentration of the solvent dimethyl sulfoxide was 0.5%). The cells were incubated for 4 days in the presence of the test substances. Cellular proliferation was determined by staining the cells with crystal violet: the cells were fixed by adding 20 μl/measuring point of an 11% glutaraldehyde solution for 15 min at room temperature. After washing the fixed cells with water three times, the plates were dried at room temperature. The cells were stained by adding 100 μl/measuring point of a 0.1% crystal violet solution (pH adjusted to pH3 by adding acetic acid). After washing the stained cells with water three times, the plates were dried at room temperature. The dye was dissolved by adding 100 μl/measuring point of a 10% acetic acid solution. The extinction was determined photometrically at a wavelength of 595 nm. The percentage change in cell growth was calculated by standardization of the measured values to the extinction values of the zero-point plate (=0%) and the extinction of the untreated (0 μM) cells (=100%). The measured data were standardized to 0% inhibition (cell proliferation without inhibitor) and 100% inhibition (zero-point plate). The IC50 values were determined by means of a 4-parameter fit using the company's own software.
(§3) The substances were examined in the following cell lines which, in an exemplary manner, represent the stated indications: […]

HT29 = test: Proliferation assay HT29; type: cell-based; details: Homo sapiens, HT-29, 96 h; HT29, colon/rectum carcinoma; 4 days, crystal violet
Description: as §2, §3

PC3 = test: Proliferation assay PC3; type: cell-based; details: Homo sapiens, PC-3, 96 h; PC3, prostate carcinoma; 4 days, crystal violet
Description: as §2, §3

H1975 = test: Proliferation assay H1975; type: cell-based; details: Homo sapiens, NCI-H1975, 96 h; H1975, non-small-cell bronchial carcinoma; 4 days, crystal violet
Description: as §2, §3

Caki2 = test: Proliferation assay Caki2; type: cell-based; details: Homo sapiens, CAKI-2, 96 h; Caki2, kidney carcinoma; 4 days, crystal violet
Description: as §2, §3

MIA PaCa-2 = test: Proliferation assay MIA PaCa-2; type: cell-based; details: Homo sapiens, 96 h; MIA PaCa-2, pancreas carcinoma; 4 days, crystal violet
Description: as §2, §3

HeLa = test: Proliferation assay HeLa; type: cell-based; details: Homo sapiens, 96 h, cervix carcinoma, 4 days, crystal violet
Description: as §2, §3

MCF7 = test: Proliferation assay MCF7; type: cell-based, human; details: MCF7, estrogen receptor-positive mamma carcinoma, 4 days, crystal violet
Procedure, shortened: (§4)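 Seed 1000–5000 cells/well, 24 h attach; fix zero-point plate. Replace medium with compound (0.01–30 μM, 0.5% DMSO), incubate 4 d. Glutaraldehyde fix, crystal violet stain, acetic acid elution, read 595 nm; IC50 by 4-parameter fit.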

DU145 = test: Proliferation assay DU145; type: cell-based, human; details: DU145, prostate carcinoma, 4 days, crystal violet
Procedure, shortened: as §4

NCI-H460 = test: Proliferation assay NCI-H460; type: cell-based, human; details: NCI-H460, non-small-cell bronchial carcinoma, 4 days, crystal violet
Procedure, shortened: as §4

T1 sequence (P06493 whole entry): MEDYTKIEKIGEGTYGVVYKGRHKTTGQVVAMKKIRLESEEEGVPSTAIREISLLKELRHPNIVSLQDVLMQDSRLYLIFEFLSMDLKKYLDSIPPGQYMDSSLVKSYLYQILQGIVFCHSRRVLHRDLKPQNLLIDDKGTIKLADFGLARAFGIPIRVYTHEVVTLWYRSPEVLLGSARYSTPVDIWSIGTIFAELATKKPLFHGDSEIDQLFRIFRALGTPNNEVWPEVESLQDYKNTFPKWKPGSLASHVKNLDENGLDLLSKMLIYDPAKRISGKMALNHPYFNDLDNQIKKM
T1 sequence (P14635 whole entry partner): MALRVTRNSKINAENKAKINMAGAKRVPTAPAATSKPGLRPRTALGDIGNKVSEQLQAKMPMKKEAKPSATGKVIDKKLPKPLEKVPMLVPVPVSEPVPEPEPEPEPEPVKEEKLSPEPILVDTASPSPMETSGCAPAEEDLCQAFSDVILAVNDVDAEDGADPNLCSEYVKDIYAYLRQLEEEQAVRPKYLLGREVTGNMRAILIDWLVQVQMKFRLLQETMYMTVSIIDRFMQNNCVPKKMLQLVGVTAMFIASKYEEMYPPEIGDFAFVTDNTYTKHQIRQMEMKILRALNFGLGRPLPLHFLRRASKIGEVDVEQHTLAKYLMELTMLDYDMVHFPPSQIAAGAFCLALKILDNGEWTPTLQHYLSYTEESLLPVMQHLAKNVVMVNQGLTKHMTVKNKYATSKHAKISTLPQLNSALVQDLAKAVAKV

Row | Compound | pIC50 (CDK1/CycB) | pIC50 (CDK2/CycE) | pIC50 (NCI-ADR-Res) | pIC50 (HT29) | pIC50 (PC3) | pIC50 (H1975) | pIC50 (Caki2) | pIC50 (MIA PaCa-2) | pIC50 (HeLa) | pIC50 (MCF7; Homo sapiens, MCF7, 96 h) | pIC50 (DU145; Homo sapiens, DU-145, 96 h) | pIC50 (NCI-H460; Homo sapiens, NCI-H460, 96 h) | pIC50 (MCF7) | pIC50 (DU145) | pIC50 (NCI-H460)
1 | C[C@@H](O)[C@@H](C)Oc1nc(Nc2ccc(S(C)(=N)=O)cc2)ncc1C(F)(F)F (single isomer, unassigned) [Example 2-SI-2] | 8.40 | 8.30 | 7.54 | 7.55 | 7.57 | 7.85 | 7.62 | 7.72 | 7.89 | – | – | – | – | – | –
2 | C[C@@H](O)[C@@H](C)Nc1nc(Nc2ccc(S(=N)(=O)C3CC3)cc2)ncc1C(F)(F)F (mixture of isomers) [Example 4-SI-1, (RS)—S-Cyclopropyl-S-(4-{[4-{[(1R,2R)-2-hydroxy-1-methylpropyl]amino}-5-(trifluoromethyl)-pyrimidin-2-yl]amino}phenyl)sulfoximide] | 8.22 | 8.22 | 7.43 | 7.92 | > 8.00 | 7.80 | > 8.00 | 7.85 | 7.48 | 7.47 | 7.51 | 7.80 | – | – | –
3 | C[C@@H](O)[C@@H](C)Oc1nc(Nc2ccc(S(C)(=N)=O)cc2)ncc1C(F)(F)F (mixture of isomers) [Example 2-SI-2, (RS)—S-(4-{[4-{[(1R,2R)-2-Hydroxy-1-methylpropyl]oxy}-5-(trifluoromethyl)pyrimidin-2-yl]-amino}phenyl)-S-methylsulfoximide] | – | – | – | – | – | – | – | – | – | – | – | – | 7.96 | 8.05 | 7.80

— patent publication US20130210846A1, “USE OF NOVEL PAN-CDK INHIBITORS FOR TREATING TUMORS” (BAYER INTELLECTUAL PROPERTY GMBH, priority 2010, published 2013)
